Test: xn = mol fraction of the nth substance listed
Conditions: Liquid, Vibrating tube method

CC(C)C [2-methylpropane] + CCCC
Conditions	mass density [kg/m3]
300 K, 5514.6 kPa, x2 = 0.25	564.1
300 K, 5950.5 kPa, x2 = 0.75	574.92
300 K, 5960.3 kPa, x2 = 0.5	570.04
300 K, 6036.6 kPa, x2 = 0.25	565.05
300 K, 6473.1 kPa, x2 = 0.75	575.78
300 K, 6498 kPa, x2 = 0.25	565.9
300 K, 6511.5 kPa, x2 = 0.5	571.01
300 K, 7001.6 kPa, x2 = 0.25	566.76
300 K, 7003.6 kPa, x2 = 0.5	571.85
300 K, 7005.5 kPa, x2 = 0.75	576.66
320 K, 978.9 kPa, x2 = 0.5	535.28
320 K, 1008.4 kPa, x2 = 0.75	541.4
320 K, 1010.3 kPa, x2 = 0.25	529.04
320 K, 1496.2 kPa, x2 = 0.25	530.4
320 K, 1506.1 kPa, x2 = 0.75	542.64
320 K, 1594.1 kPa, x2 = 0.5	536.89
320 K, 2006 kPa, x2 = 0.75	543.82
320 K, 2007.9 kPa, x2 = 0.5	537.95
320 K, 2013.6 kPa, x2 = 0.25	531.82
320 K, 2503.8 kPa, x2 = 0.75	545.03
320 K, 2511 kPa, x2 = 0.25	533.15
320 K, 2513.8 kPa, x2 = 0.5	539.22
320 K, 2989.3 kPa, x2 = 0.25	534.4
320 K, 2990.8 kPa, x2 = 0.75	546.14
320 K, 3020.8 kPa, x2 = 0.5	540.47
320 K, 3465.4 kPa, x2 = 0.5	541.53
320 K, 3504.2 kPa, x2 = 0.25	535.74
320 K, 3510.6 kPa, x2 = 0.75	547.3
320 K, 3972.8 kPa, x2 = 0.5	542.72
320 K, 3986.7 kPa, x2 = 0.75	548.41
320 K, 4006.4 kPa, x2 = 0.25	537
320 K, 4485.3 kPa, x2 = 0.25	538.17
320 K, 4492.1 kPa, x2 = 0.5	543.94
320 K, 4515.1 kPa, x2 = 0.75	549.56
320 K, 4992.4 kPa, x2 = 0.5	545.07
320 K, 4997.8 kPa, x2 = 0.75	550.6
320 K, 4998.1 kPa, x2 = 0.25	539.39
320 K, 5465.3 kPa, x2 = 0.5	546.12
320 K, 5506.3 kPa, x2 = 0.25	540.6
320 K, 5508.2 kPa, x2 = 0.75	551.69
320 K, 5970.9 kPa, x2 = 0.25	541.67
320 K, 5971.8 kPa, x2 = 0.5	547.22
320 K, 6015.9 kPa, x2 = 0.75	552.74
320 K, 6462.7 kPa, x2 = 0.5	548.28
320 K, 6488.4 kPa, x2 = 0.75	553.71
320 K, 6514.9 kPa, x2 = 0.25	542.91
320 K, 7034.9 kPa, x2 = 0.25	544.07
320 K, 7065.7 kPa, x2 = 0.75	554.85
320 K, 7093.8 kPa, x2 = 0.5	549.62
340 K, 998.6 kPa, x2 = 0.5	506.59
340 K, 1008.5 kPa, x2 = 0.75	513.55
340 K, 1505.9 kPa, x2 = 0.75	515.25
340 K, 1510 kPa, x2 = 0.25	501.39
340 K, 1561.3 kPa, x2 = 0.5	508.67
340 K, 2003.4 kPa, x2 = 0.25	503.24
340 K, 2008.5 kPa, x2 = 0.5	510.27
340 K, 2020.5 kPa, x2 = 0.75	516.97
340 K, 2495.8 kPa, x2 = 0.25	505.08
340 K, 2500.9 kPa, x2 = 0.75	518.54
340 K, 2527.9 kPa, x2 = 0.5	512.06
340 K, 3001.4 kPa, x2 = 0.5	513.65
340 K, 3005.7 kPa, x2 = 0.75	520.07
340 K, 3009.8 kPa, x2 = 0.25	506.91
340 K, 3499.6 kPa, x2 = 0.75	521.61
340 K, 3512.9 kPa, x2 = 0.25	508.67
340 K, 3521.9 kPa, x2 = 0.5	515.35
340 K, 4004.8 kPa, x2 = 0.25	510.31
340 K, 4004.8 kPa, x2 = 0.75	523.11
340 K, 4042.3 kPa, x2 = 0.5	516.97
340 K, 4496.4 kPa, x2 = 0.75	524.53
340 K, 4508.6 kPa, x2 = 0.25	511.95
340 K, 4526.2 kPa, x2 = 0.5	518.46
340 K, 4981.3 kPa, x2 = 0.25	513.47
340 K, 4988.5 kPa, x2 = 0.5	519.84
340 K, 4990.6 kPa, x2 = 0.75	525.87
340 K, 5500.3 kPa, x2 = 0.25	515.08
340 K, 5502 kPa, x2 = 0.5	521.34
340 K, 5515.9 kPa, x2 = 0.75	527.37
340 K, 5973.6 kPa, x2 = 0.75	528.61
340 K, 5999.1 kPa, x2 = 0.25	516.58
340 K, 6016.6 kPa, x2 = 0.5	522.8
340 K, 6476.8 kPa, x2 = 0.5	524.07
340 K, 6496.3 kPa, x2 = 0.75	529.99
340 K, 6508.8 kPa, x2 = 0.25	518.07
340 K, 7019.3 kPa, x2 = 0.75	531.33
340 K, 7019.9 kPa, x2 = 0.25	519.55
340 K, 7084.7 kPa, x2 = 0.5	525.72
360 K, 1517.1 kPa, x2 = 0.75	483.05
360 K, 1517.3 kPa, x2 = 0.5	475.07
360 K, 1523.6 kPa, x2 = 0.25	466.34
360 K, 1975.7 kPa, x2 = 0.25	469.15
360 K, 1976.3 kPa, x2 = 0.75	485.36
360 K, 2018.5 kPa, x2 = 0.5	477.84
360 K, 2482.6 kPa, x2 = 0.25	472.1
360 K, 2496 kPa, x2 = 0.75	487.85
360 K, 2525 kPa, x2 = 0.5	480.5
360 K, 2961.3 kPa, x2 = 0.75	489.97
360 K, 3005.9 kPa, x2 = 0.5	482.91
360 K, 3010.1 kPa, x2 = 0.25	474.99
360 K, 3489.3 kPa, x2 = 0.75	492.24
360 K, 3507.7 kPa, x2 = 0.25	477.58
360 K, 3511.2 kPa, x2 = 0.5	485.28
360 K, 3977.2 kPa, x2 = 0.75	494.26
360 K, 4007.3 kPa, x2 = 0.25	480.03
360 K, 4019.1 kPa, x2 = 0.5	487.57
360 K, 4443.6 kPa, x2 = 0.75	496.16
360 K, 4493 kPa, x2 = 0.25	482.35
360 K, 4510.2 kPa, x2 = 0.5	489.71
360 K, 4948.8 kPa, x2 = 0.75	498.12
360 K, 5010.2 kPa, x2 = 0.25	484.66
360 K, 5018.9 kPa, x2 = 0.5	491.8
360 K, 5499.8 kPa, x2 = 0.75	500.18
360 K, 5503.6 kPa, x2 = 0.25	486.78
360 K, 5508.6 kPa, x2 = 0.5	493.77
360 K, 5964.2 kPa, x2 = 0.75	501.91
360 K, 6002.5 kPa, x2 = 0.25	488.86
360 K, 6019.4 kPa, x2 = 0.5	495.75
360 K, 6484.4 kPa, x2 = 0.75	503.73
360 K, 6497.2 kPa, x2 = 0.25	490.83
360 K, 6511.4 kPa, x2 = 0.5	497.56
360 K, 7022.1 kPa, x2 = 0.5	499.47
360 K, 7041 kPa, x2 = 0.25	492.93
360 K, 7073.3 kPa, x2 = 0.75	505.68
380 K, 1992.3 kPa, x2 = 0.75	445.43
380 K, 2496.5 kPa, x2 = 0.25	428.54
380 K, 2506.6 kPa, x2 = 0.5	440.41
380 K, 2519.3 kPa, x2 = 0.75	449.94
380 K, 3005 kPa, x2 = 0.5	444.82
380 K, 3007.8 kPa, x2 = 0.25	433.95
380 K, 3014.5 kPa, x2 = 0.75	453.77
380 K, 3482.8 kPa, x2 = 0.75	457.09
380 K, 3498.2 kPa, x2 = 0.25	438.53
380 K, 3519 kPa, x2 = 0.5	448.92
380 K, 4000 kPa, x2 = 0.25	442.76
380 K, 4015.3 kPa, x2 = 0.5	452.56
380 K, 4022 kPa, x2 = 0.75	460.64
380 K, 4463.2 kPa, x2 = 0.25	446.33
380 K, 4476.8 kPa, x2 = 0.75	463.44
380 K, 4521.7 kPa, x2 = 0.5	456
380 K, 4994 kPa, x2 = 0.75	466.44
380 K, 5001.3 kPa, x2 = 0.5	459.04
380 K, 5004.6 kPa, x2 = 0.25	450.19
380 K, 5481.2 kPa, x2 = 0.25	453.35
380 K, 5504.5 kPa, x2 = 0.75	469.24
380 K, 5511.6 kPa, x2 = 0.5	462.08
380 K, 5986.7 kPa, x2 = 0.25	456.5
380 K, 5998.4 kPa, x2 = 0.75	471.8
380 K, 6010.6 kPa, x2 = 0.5	464.88
380 K, 6475.4 kPa, x2 = 0.75	474.16
380 K, 6476.8 kPa, x2 = 0.25	459.36
380 K, 6505.2 kPa, x2 = 0.5	467.52
380 K, 6967.5 kPa, x2 = 0.75	476.48
380 K, 6981.4 kPa, x2 = 0.5	469.94
380 K, 7003.2 kPa, x2 = 0.25	462.28

mass density [kg/m3]
Conditions	300 K	320 K	340 K	360 K	380 K
x2 = 0.25	553.87	527.89	499.35	–	424.73
x2 = 0.5	559.44	534.14	506.18	474.18	435.21
x2 = 0.75	564.78	540.17	512.91	481.73	445.14

Reference: the NIST ThermoML archive (doi:10.1021/je049671t)
